RP-LC retention time data for 81 compounds are collected here from the METLIN SMRT retention time set (Domingo-Almenara et al. 2019).

Structures are written as SMILES.

A short description of this series: gradient 5% acetonitrile 3 min, to 50% in 2 min, to 85% in 15 min, held 3 min, 100 µL/min. To be noted: column: Zorbax Extend-C18 2.1 x 50 mm; eluents: water / acetonitrile, 0.1% formic acid. An outline of the steps:
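Pure standards were analyzed in mixtures of ~100 molecules using HPLC coupled to a quadrupole time-of-flight mass spectrometer, in both positive and negative ionization mode. Separation used a Zorbax Extend-C18 column (2.1 × 50 mm, 1.8 μm) at 100 μL/min, with water and acetonitrile each containing 0.1% formic acid. Dead and dwell volumes were 40 μL and 900 μL, and data were collected over 3 months. Retention time was read from computationally picked adduct peaks, each inspected manually.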
Turning to `CCN1C(=O)CCc2cc(NS(=O)(=O)c3cc(F)ccc3F)ccc21`, the RP-LC retention time turned out to be 973 s.
Compound `Cc1ccc2[nH]c(=O)c(CCC(=O)N(C)Cc3cn(C)nc3C)cc2c1` gave an RP-LC retention time of 646 s.
With `Cc1nc(C(=O)N2CCN(Cc3ccc(C)c(C)c3)CC2)c(C)o1`, the RP-LC retention time stood at 619 s.
In the case of `COc1cc(NC(=O)N2CCC(CN3CC(C)CC(C)C3)CC2)cc(OC)c1OC` (stereo unspecified), the RP-LC retention time was determined as 625 s.
In the case of `COc1ccc(Cl)cc1NC(=O)CN1C(=O)NC2(CCCCC2C)C1=O` (stereo unspecified), the RP-LC retention time amounted to 838 s.
`Cc1ccc(-c2nc3ccccn3c2NC(=O)NCc2ccc(F)cc2)cc1` showed an RP-LC retention time of 681 s.
The compound `CCc1cc(-c2csc(S(=O)(=O)NCC3CCN(Cc4ccc(Cl)cc4)CC3)c2)on1` registered an RP-LC retention time of 739 s.
To `O=C(Nc1cc(-c2cccc(Cl)c2)no1)C1CCCN(c2ncnc3c2nc2n3CCCCC2)C1` (stereo unspecified) belongs 1080 s; to `O=C(NC1CC1)[C@@H]1C[C@H](Oc2ccccc2)CN1S(=O)(=O)c1cccc2nsnc12`, 828 s.
Turning to `COCCn1c(CCCC(=O)NCc2ccc(C(C)C)cc2)nc2cccnc21`, the RP-LC retention time worked out at 741 s.
`Cc1ccc(-c2nc(N)n(C(=O)C3CC3)n2)cc1C` displayed an RP-LC retention time of 962 s.
`CSc1ccc(-c2nc3cccc(C)n3c2Nc2ccc(Cl)cc2)cc1` returned an RP-LC retention time of 788 s.
`O=S(=O)(NCC1(c2ccc(F)cc2)CC1)c1ccc2c(c1)OCCO2`: the RP-LC retention time was 918 s.
`COC(=O)C(C)NC(=O)NCc1cccn1Cc1cc(C)ccc1C` (stereo unspecified) had an RP-LC retention time of 885 s.
For `O=C(Nc1nnc(C2CCCCC2)o1)c1c[nH]c2ccccc12`, the RP-LC retention time is 714 s.
In turn, `CC(C)Cn1c(=O)c2cc(C(=O)N(C)CC(=O)N3CCCCCC3)nn2c2ccccc21` registered an RP-LC retention time of 891 s.
To `CCS(=O)(=O)N1CCCc2cc(C(=O)NCC3CCCO3)ccc21` (stereo unspecified) belongs 708 s; to `Cc1ccc(-c2noc(Cn3ccn(-c4cccc(Cl)c4)c(=O)c3=O)n2)cc1`, 920 s; to `O=C(NCc1ccccc1Cl)c1ccc2c(cnn2CC(=O)N2CCCCCC2)c1`, 830 s.
`CCn1c(SCC(=O)N(C)C)nnc1-c1ccc2c(c1)OCCCO2` showed an RP-LC retention time of 671 s.
To `CCN1C(=O)C(C)(C)COc2cc(NC(=O)Nc3ccccc3C(F)(F)F)ccc21` belongs 943 s.
Take `CCS(=O)(=O)c1ncc(Cl)c(C(=O)Nc2ccc(Oc3ccccc3)cc2)n1`: the RP-LC retention time was 929 s.
As to `COCCn1cc2c3c(cccc31)CN(C(=O)Nc1ccc(OC)c(F)c1)CC2`, the RP-LC retention time was 891 s.
With `CC(C)CN(Cc1ccccc1)Cc1cc(=O)n2cc(Cl)ccc2n1`, the RP-LC retention time was 686 s.
For the compound `O=C(Nc1cc(F)ccc1F)N1CCCC1c1nc(-c2ccccc2)no1` (stereo unspecified), the RP-LC retention time stood at 1020 s.
`COc1ccc(CNC(=O)Cc2csc3nc(-c4ccc(OC)c(OC)c4)cn23)cc1OC` had an RP-LC retention time of 648 s.
`Cc1noc(CN2CCN(C3CCN(Cc4cc(Cl)ccc4F)C3)C2=O)n1` (stereo unspecified) had an RP-LC retention time of 713 s.
As to `COC(=O)c1sc2ccccc2c1NC(=O)c1ccc(S(=O)(=O)N2CCCC2)cc1`, the RP-LC retention time stood at 946 s.
With `O=C1NC2(CCN(C(=O)c3ccc4ccccc4c3)CC2)N=C1c1ccccc1`, the RP-LC retention time turned out to be 859 s.
In the case of `CCCOc1ccc(CN2C[C@@H](CO)[C@H](c3ccncc3)C2)cc1OC`, the RP-LC retention time is 557 s.
In turn, `O=C(c1cccs1)N1CCCCC1c1nncn1-c1ccccc1` (stereo unspecified) displayed an RP-LC retention time of 705 s.
Turning to `Cc1cc(C(=O)NC(C)c2ccccc2)n(-c2ccccc2)n1` (stereo unspecified), the RP-LC retention time was determined as 850 s.
Take `CCOc1ccccc1CNC(=O)COc1nc(CC)nc2oc(C)c(C)c12`: the RP-LC retention time was determined as 1050 s.
Under `CS(=O)(=O)N1CCC(c2nnc(-c3ccco3)s2)CC1` stands 655 s.
To `O=S(=O)(c1cccc(Cl)c1)N1CCc2nc(-c3ccc(F)cc3)ncc2C1` belongs 1180 s.
Under `O=C(Nc1nnc(-c2ccc3c(c2)CCCC3)o1)c1ccc([N+](=O)[O-])o1` stands 918 s.
For `O=C(NCc1csc(-c2ccccc2)n1)C1CCN(S(=O)(=O)c2ccc3c(c2)CCCC3)CC1`, the RP-LC retention time is 1100 s.
Under `CCNc1cc(N2CCC(CCC(=O)NCc3ccccc3)CC2)ncn1` stands 647 s; under `C=CCNc1c(C(=O)OC)c(=O)[nH]c2ccc(F)cc12`, 679 s.
`O=C(Cc1cccc2ccccc12)NCC1CCN(Cc2cccs2)CC1` gave an RP-LC retention time of 572 s.
Turning to `CC(C)n1c(N2CCN(C(=O)Cc3ccc(F)cc3)CC2)cc(=O)n(C(C)C)c1=O`, the RP-LC retention time is 818 s.
Under `CCN1c2ccc(F)cc2C(=O)NC12CCN(C(=O)Cc1ccc(C)cc1)CC2` stands 853 s; under `CCCCNC(=O)C1CCCN(c2cc(=O)n(C)c(=O)n2CC)C1` (stereo unspecified), 759 s; under `CC(=O)N1CCc2c(c(CNC(=O)Cc3c(C)noc3C)nn2C)C1`, 570 s.
Under `CCOC(=O)C1=C(C)NC2=C(C(=O)C(C(=O)OC)C(C)C2)C1c1cccc(F)c1` (stereo unspecified) stands 908 s.
As for `CCOC(=O)c1ccc(CN2C(=O)CSC2=O)cc1`, the RP-LC retention time was determined as 786 s.
Turning to `CC1CCN(C(=O)c2cn(-c3ccc(-c4nc(C(C)(C)C)no4)cn3)cn2)CC1`, the RP-LC retention time came out at 1130 s.
`COC(=O)CSc1nnc(-c2sc3ncccc3c2N)n1C1CC1`: the RP-LC retention time was found to be 694 s.
The compound `Cc1ccc(CNC(=O)C(=O)NCCO)cc1` displayed an RP-LC retention time of 600 s.
With `CCc1ccccc1NS(=O)(=O)c1cc(-c2[nH]ncc2C(=O)N2CCCCC2)oc1C`, the RP-LC retention time came out at 799 s.
`CCOC(=O)c1nc(Nc2cc(C)ccc2C)c2ccccc2n1` showed an RP-LC retention time of 870 s.
Take `COc1ccc(CN2CC3(CCN(S(=O)(=O)c4c(C)noc4C)CC3)C2=O)cc1`: the RP-LC retention time is 842 s.
To `Fc1ccc(-c2noc(-c3nnc(NCCCN4CCOCC4)c4ccccc34)n2)cc1` belongs 700 s; to `O=C(C1CCCO1)N1CCC(CCOc2cccc(F)c2)CC1` (stereo unspecified), 842 s; to `CC1=NS(=O)(=O)N(C)C=C1C(=O)OCc1ccc(C)cc1`, 975 s.
With `CCC1Oc2ccc(S(=O)(=O)N3CCC(C(=O)NCc4ccc(C)cc4)CC3)cc2NC1=O` (stereo unspecified), the RP-LC retention time was 963 s.
With `CCC(=O)Nc1ccc(S(=O)(=O)N2CCC(N3CCOCC3)CC2)cc1`, the RP-LC retention time was found to be 575 s.
The compound `COCCCN1CN=C(Nc2nc(C)c3cc(OC)ccc3n2)NC1` yielded an RP-LC retention time of 643 s.
The compound `Cc1nc(CSc2nnc3ccc(-c4cccnc4)nn23)cs1` showed an RP-LC retention time of 577 s.
To `COCCNc1c(-c2ccc(OC)cc2)nc2sc(C(=O)N(C)C)c(C)n12` belongs 698 s; to `CC(C)Oc1ccc(-c2noc(Cn3ccn(-c4ccc(Cl)cc4)c(=O)c3=O)n2)cc1`, 973 s.
Compound `Cc1cccc(-c2nc3nc(C)cc(N4CCCC4)n3n2)c1` gave an RP-LC retention time of 768 s.
Turning to `Cc1ccc(N2CCC(NC(=O)C3CCCCC3)C2=O)cc1` (stereo unspecified), the RP-LC retention time is 520 s.
On to `Cc1ccc(N(C(=O)Cc2ccccc2)C2C=CS(=O)(=O)C2)cc1Cl` (stereo unspecified), for which the RP-LC retention time was found to be 869 s.
To `CCCn1nc(CNC(=O)c2sc(C)nc2C)c2ccccc21` belongs 776 s; to `O=C(Cn1cnc2ccccc2c1=O)N[C@@H](Cc1ccccc1)C(=O)O`, 671 s.
Under `O=C(Cn1c(C(F)(F)F)nc2cc3c(cc21)OCCO3)N1CCOCC1` stands 682 s; under `Cc1ccc(S(=O)(=O)N2CCC(C(=O)NCc3cscn3)CC2)c(C)c1`, 752 s; under `Cc1noc([C@@H]2CN(C(=O)CCc3nc4ccccc4s3)C[C@H]2C(N)=O)n1`, 650 s.
With `O=C(c1ccc(Cl)cc1)N1CCC(N(C(=O)C2CC2)C2CCOCC2)CC1`, the RP-LC retention time turned out to be 775 s.
Regarding `Cc1noc(CNC(=O)C2CCN(C(=O)c3ccc(S(=O)(=O)N(C)C)cc3)CC2)n1`, the RP-LC retention time amounted to 618 s.
In the case of `CCc1ccc(C(C)NC(=O)c2cccc(C3CCCN(C(=O)NC(C)C)C3)c2)cc1` (stereo unspecified), the RP-LC retention time stood at 1010 s.
The compound `Brc1ccc(-c2noc(Cc3nnc(-c4ccccc4)o3)n2)cc1` gave an RP-LC retention time of 1110 s.
To `CCc1cccc(C)c1NC(=O)Cn1c(=O)n(-c2ccc(C)cc2)c(=O)c2c1cc(C)n2C` belongs 909 s; to `COc1cccc(-c2noc(C3CCCN3C(=O)Nc3ccc(C)cc3)n2)c1` (stereo unspecified), 983 s; to `CC1=C(c2ccc(C)c(C)c2)S(=O)(=O)N=C1N1CCCN(C(=O)C(C)C)CC1`, 854 s.
`O=C1CCN(C(=O)C2CCN(C(=O)CCC3CCCC3)CC2)CCCCCCN1` had an RP-LC retention time of 725 s.
The compound `Cc1ccc(NC(=O)Nc2c(-c3ccncc3)nc3ccccn23)cc1C` came in with an RP-LC retention time of 632 s.
To `CCn1c(=O)c(C(=O)NCc2ccccc2F)nc2cccnc21` belongs 824 s; to `CCn1c(-c2ccccc2)cc(C(=O)N(C)C)c1C`, 697 s; to `CCOC(=O)c1nc(NCc2ccc(OC)cc2OC)c2ccccc2n1`, 768 s.
